Measured values as given in US5830903A, “Triazole substituted quinoline derivatives for gastrointestinal treat-treatment” (Alkaloida Chemical Co., Ltd., priority 1993, dated 1998).
Read-outs that look alike come from different tables or passages of the source. Marks after values point to notes of the source that are not given here.

Experiments:
[1] = test system: alcohol induced increase of gastric glandular capillary permeability; assay: Alcohol induced increase of gastric glandular capillary permeability; assay type: in vivo, rats; conditions: 100% ethanol alone
Method: After 13 minutes 1 ml of 100% ethanol was added perorally and after further 2 minutes the stomachs were removed and their weights measured. […]

[2] = test system: lesions caused by the NSAID piroxicam; assay: Piroxicam-induced gastric erosions, test substance 1 hour after piroxicam; assay type: in vivo, WISTAR rats; conditions: piroxicam alone 60 mg/kg po., n = 7
Method: (§1) Administration of the test substances followed 1 hour after injection. After 4 hours the animals were over-anesthesized with ether and the changes (erosions) were evaluated as in Example I.1. The size of the lesions was characterized by way of the ulcer index.

[3] = test system: lesions caused by intomethacin; assay: Indomethacin-induced gastric lesions; assay type: in vivo, female OFA-rats; conditions: Rattus norvegicus, po, 6 h, read-out: ED50 mg/kg (p.o.)
Method: The compounds were administered in a volume of 0.5 ml/100 g in a suspension prepared in water with 2-4% Tween-80. After 6 hours the animals were over-anesthesized and their stomachs were opened along the greater curvature. The preparations were investigated by stereomicroscopy using an 8-fold enlargement. The number, size and incidence of erosions and ulcers was noted and compared with the control group treated with the carrier only.
The size of the ulcers was determined on the basis of the following score:
1: ulcer or erosion of the size of 1-2 mm;
2: ulcer or erosion of the size of 2-3 mm;
3: ulcer or erosion of the size of 3-4 mm;
4: ulcer longer than 4 mm;
5: ulcer longer and broader than 4 mm.
The ED50 values were calculated on the basis of ulcer-indexes:
ulcer index=/severeity of lesion x number of lesions/number of animals /n/

[4] = test system: lesions induced with hydrochloric acid and ethanol; assay: Gastric haemorrhages induced by hydrochloric acid in ethanol (cytoprotection); assay type: in vivo, female rats; conditions: for average length of haemmorrhages, change in %: treated vs control; for protection against hydrochloric acid/ethanol lesions (in words): 100 mg/kg
Method: The volume of treatment was 0.5 ml/100 g. […] The average degree of haemorrhages of the treated groups was compared to the control groups treated with the vehicle only. Number of animals was 6-18 in each group.

[5] = test system: ulcers induced by reserpine; assay: Reserpine induced ulcers; assay type: in vivo, female OFA rats; conditions: 40 mg/kg p.o.; reserpine 5 mg/kg s.c.; 18 h
Method: Female OFA rats of 130-160 g weight, starved for 24 hours, were treated at the same time perorally with 40 mg/kg doses of the substances to be tested and with 5 mg/kg s.c. doses of reserpine. After 18 hours the animals were over-anesthesized and the removed stomachs were investigated under stereomicroscope using a 8-fold enlargement. The number of ulcers was counted and their size was evaluated using 0-0.5-1-2-4-8-16-32 scores. The number of animals was 5 for each dose.

[6] = test system: lesions caused by the NSAID naproxen; assay: Naproxen-induced gastric erosions, test substance 1 hour after naproxen; assay type: in vivo, WISTAR rats; conditions: naproxen alone 75 mg/kg po., n = 7
Method: as §1

[7] = test system: stress ulcer caused by immersion; assay: Stress ulcer caused by immersion; assay type: in vivo, Wistar rats; conditions: for erosion inhibition % / erosion ulcus-index mm / hyperemia inhibition % / hyperemia ulcer-index mm: n = 7
Method: 30 minutes after peroral treatment with the test substance, […]. After seven hours the glandular lesions appearing in the stomach were evaluated according to the score described in Example I.1.

[8] = test system: histamine stimulated hydrochlorid acid secretion; assay: Histamine stimulated gastric acid secretion in Shay rats; assay type: in vivo; conditions: histamine alone 10 mg/kg s.c.
Method: The test substances were added on the course of operation intra-duodenally. Immediately after operation each rat obtained 0.50 ml s.c. of a physiological salt solution for hydration. After 4 hours the rats were over-anesthesized, the stomach liquid was collected, centrifugated and the volume determined. […] Measurement of stimulated secretion of gastric acid was also carried out according to the above method.

[9] = 60 min before 20 mg/kg indomethacin, from ulcer index, confidence limits 95%
[10] = 20.0 mg/kg p.o., control 61.3 ± 9.8 (substance 6, n = 6), 80.4 ± 8.2 (substance 11, n = 12)

**Q.** What does the source list for `CCO` [100% ethanol, reference compound]?
**A.** Evans-blue [1]: 9.45 ± 0.94 µg/g; stomach [1]: 1.1 ± 0.15 g

**Q.** Which “ulcus index ± SEM” value [2] does the source give for `CN1C(C(=O)Nc2ccccn2)=C(O)c2ccccc2S1(=O)=O` [piroxicam, reference compound] here?
**A.** 23.3 ± 6.4

**Q.** `Cc1cc(Sc2nc[nH]n2)c2ccccc2n1` [Substance 9, 2-methyl-4-(1H-1,2,4-triazole-3-yl-thio)-quinoline] was tested. Which ED50 [3, 9] did it give?
**A.** 47 mg/kg

**Q.** What does the source list for `Cc1cc2ccccc2nc1-n1cncn1` [Substance 6, 2-(1H-1,2,4-triazole-1-yl)-3-methyl-quinoline]?
**A.** average length of haemmorrhages, treated [4, 10]: 48.0 ± 10.3 mm; average length of haemmorrhages, change in % ([4]; 20.0 mg/kg p.o.): -22%; ED50 [3, 9]: 29 mg/kg; number of ulcers, %change compared with control [5]: +17%; severity of ulcers, %change compared with control [5]: -5%; ulcers per treated [5]: 5/5

**Q.** Which “ulcus index ± SEM” value [6] does the source give for `COc1ccc2cc([C@H](C)C(=O)O)ccc2c1` [naproxen, reference compound] here?
**A.** 25.2 ± 6.1

**Q.** With `Clc1ccc2c(-n3cncn3)ccnc2c1` [Substance 2, 4-(1H-1,2,4-triazole-1-yl)-7-chloro-quinoline] as the compound, how does the ED50 [3, 9] read?
**A.** 53 mg/kg

**Q.** Which erosion inhibition % ([7]; 100 mg/kg p.o.) does the source give for `CN/C(=N/CCSCc1nc[nH]c1C)NC#N` [cimetidine, reference compound] here?
**A.** 34%

**Q.** And the erosion ulcus-index mm ([7]; 100 mg/kg p.o.)?
**A.** 24.4 ± 10.0 mm

**Q.** And the hyperemia inhibition % ([7]; 100 mg/kg p.o.)?
**A.** 21%

**Q.** And the hyperemia ulcer-index mm ([7]; 100 mg/kg p.o.)?
**A.** 58.1 ± 10.4 mm

**Q.** And the erosion inhibition % ([7]; 200 mg/kg p.o.)?
**A.** 50%

**Q.** What about the erosion ulcus-index mm ([7]; 200 mg/kg p.o.) of the same compound?
**A.** 18.2 ± 11.2 mm

**Q.** What about the hyperemia inhibition % ([7]; 200 mg/kg p.o.) of the same compound?
**A.** 39%

**Q.** What about the hyperemia ulcer-index mm ([7]; 200 mg/kg p.o.) of the same compound?
**A.** 48.2 ± 14.6 mm

**Q.** And the “inhibition of hyperemia and erosion (in words)” value ([7]; substance 1 at 50 mg/kg p.o., cimetidine)?
**A.** no significant inhibition

**Q.** What about the “protection against hydrochloric acid/ethanol lesions (in words)” value [4] of the same compound?
**A.** practically ineffective

**Q.** What about the “protection against hydrochloric acid/ethanol lesions (in words)” value ([4]; listed as Cimetidin) of the same compound?
**A.** practically inactive

**Q.** And the “average length of haemmorrhages, treated” value ([4]; 300 mg/kg p.o., n = 16, control 74.8 ± 6.4)?
**A.** 64.2 ± 12.3 mm

**Q.** What about the “average length of haemmorrhages, change in %” value ([4]; 300 mg/kg p.o.) of the same compound?
**A.** -24%

**Q.** What about the ED50 [3] of the same compound?
**A.** 96 mg/kg

**Q.** How did the ED50 [3, 9] turn out when `c1ccc2nc(-n3cncn3)ccc2c1` [Substance 5, 2-(1H-1,2,4-triazole-1-yl)-quinoline] was run?
**A.** 38 mg/kg

**Q.** How did the ED50 [3, 9] turn out when `Cc1cc2ccc(Br)cc2nc1-n1cncn1` [Substance 7, 2-(1H-1,2,4-triazole-1-yl)-3-methyl-7-bromo-quinoline] was run?
**A.** 34 mg/kg

**Q.** With `NCCc1c[nH]cn1` [histamine, reference compound] as the compound, how does the “acid secretion μEqu/4^h” value [8] read?
**A.** 1477 ± 80 μEqu/4^h

**Q.** And the “acidity μEqu/ml” value [8]?
**A.** 237 ± 18 μEqu/ml

**Q.** What about the “volume/4^h” value [8] of the same compound?
**A.** 6.3 ± 0.7 mL

**Q.** For `CCc1nc(Sc2nc3ccccc3cc2C)n[nH]1` [Substance 12, 2-(5-ethyl-1H-1,2,4-triazole-3-yl-thio)-3-methyl-quinoline], which ED50 [3, 9] is on record?
**A.** 74 mg/kg

**Q.** `Cc1ccc2c(-n3cncn3)ccnc2c1` [Substance 3, 4-(1H-1,2,4-triazole-1-yl)-7-methyl-quinoline] was tested. Which ED50 [3, 9] did it give?
**A.** 74 mg/kg

**Q.** Which ED50 [3, 9] does the source give for `Cc1cc(-n2cncn2)c2ccccc2n1` [Substance 4, 2-methyl-4-(1H-1,2,4-triazole-1-yl)-quinoline] here?
**A.** 44 mg/kg

**Q.** With `Cc1cc2ccccc2nc1Sc1nc[nH]n1` [Substance 11, 2-(1H-1,2,4-triazole-3-yl-thio)-3-methyl-quinoline] as the compound, how does the “average length of haemmorrhages, treated” value [4, 10] read?
**A.** 51.8 ± 10.0 mm

**Q.** And the “average length of haemmorrhages, change in %” value ([4]; 20.0 mg/kg p.o.)?
**A.** -36%

**Q.** And the ED50 [3, 9]?
**A.** 14 mg/kg

**Q.** What about the “number of ulcers, %change compared with control” value [5] of the same compound?
**A.** +67%

**Q.** What about the “severity of ulcers, %change compared with control” value [5] of the same compound?
**A.** +37%

**Q.** And the ulcers per treated [5]?
**A.** 5/5

**Q.** `CCc1ccc2cc(C)c(-n3cncn3)nc2c1` [Substance 8, 2-(1H-1,2,4-triazole-1-yl)-3-methyl-7-ethyl-quinoline] was tested. Which ED50 [3, 9] did it give?
**A.** 40 mg/kg

**Q.** Which ED50 [3, 9] does the source give for `CCc1nc(Sc2cc(C)nc3cc(C)cc(C)c23)n[nH]1` [Substance 10, 2,5,7-trimethyl-4-(5-ethyl-1H-1,2,4-triazole-3-yl-thio)-quinoline] here?
**A.** 74 mg/kg
